The values below come from paper PMC8559926, “Design, synthesis and biological evaluation of N-oxide derivatives with potent in vivo antileishmanial activity” (PLoS ONE, 2021).

For orientation: IC50 means the midpoint of a concentration-inhibition curve. Broadly, the melting point is the temperature of the solid-liquid transition.

“And” between values parts separate entries of the source, which are not always exact repeats. Equal entries are not always repeated. Where two headings read alike, the source gives them in different places. A value given as a limit tells only on which side of the number the result lay.

Series [1] relates to L. infantum intracellular amastigotes. In words: Anti-amastigote activity in infected murine peritoneal macrophages. The note with it: Leishmania infantum, Peritoneal macrophage, read-out: EC50 - Effective Concentration that kills 50% of L. infantum amastigote forms. The format is cell-based. The protocol:
(§1) The antileishmanial activity against L. infantum intracellular amastigotes, according to the following methodology. […] Were used infected macrophages as negative control and amphotericin B as the positive control.
(§2) After incubation, cells were fixed with methanol and Giemsa stained. The effective concentration to 50% amastigotes death (EC) was obtained by counting 100 macrophages in duplicate, in two independent experiments. The values were obtained by non-linear regression on Bioestat® software, and results were expressed in mean ± standard deviation.

Assay in series [2]: as above
The note with it: Swiss, mouse; CC50 macrophages / EC50 L. infantum amastigotes; read-out: SI - Selective Index (CC50/EC50). The format is cell-based, L. infantum. The protocol: as §1, §2

The nature of series [3]: Quantification of nitrite by the Griess reaction (NO release). The note with it: compounds at 10^-4 M, 5 mM of L-Cys (1:50), 1 h, 37°C. The protocol:
The levels of nitrite resulting from the oxidation of NO in the aqueous medium were quantified through the Griess reaction after incubation with an excess of L-cysteine (1:50) according to previously published methods. The experiments were performed in triplicate and repeated three times on different days. […] The results were expressed as a percentage of nitrite (% NO2^−; mol/mol). Statistical analysis was carried out using ANOVA followed by Tukey’s Multiple Comparison Test at a significance level of p < 0.05.
The ability of all synthesized compounds (4a-x) and (14a-g) to release NO was evaluated by indirect determination of NO2^− production. The compounds at 10^−4 M were incubated for 1 h at 37°C in the presence of L-cysteine (1:50) and the produced NO2^− was determined through Griess reaction (Table 1).

The target in series [4] is T1, recombinant Leishmania cysteine protease LmCPB2.8ΔCTE (CPB) (Leishmania mexicana, UniProt P36400).
T1 construct: The ORF that codes for the Leishmania mexicana CPB, lacking the C terminal extension (CPB2.8ΔCTE); made in house; host or cells: Pichia pastoris X-33
Put plainly: Enzymatic inhibition of recombinant CPB (Z-FR-AMC substrate). The format is biochemical. The protocol:
The concentration of the active recombinant CPB expressed in Pichia pastoris supernatant was determined by active site titration with N-(trans-Epoxysuccinyl)-L-leucine 4-guanidinobutylamide E-64 (CalBiochem) that was found 1 μM. The active enzyme represented about 80% of the total recombinant enzyme.
Compounds were dissolved in DMSO to a final concentration of 20 μM. The assays were performed in dark 96 well-plates, containing 200 μL of 100 mM sodium acetate buffer (pH 5.5), 200 mM NaCl, 0.01% Triton-X100, 2 nM enzyme, various concentrations of inhibitor, and 5 μM of the substrate Z-FR-AMC (Calbiochem). The final concentration of DMSO was 1% (v/v). The enzyme was pre-incubated at 30°C for 2 minutes before the inhibitor was added, waited 2 minutes and after this incubation, the reaction was started by the addition of the substrate, Z-FR-AMC. The fluorescence was monitored at 380 nm excitation and 460 nm emission filters for 2 minutes at 30°C in an Infinite 200 PRO microplate reader (Tecan, Männedorf, Switzerland). The residual activity was measured by the ratio between enzyme + substrate and enzyme + inhibitor + substrate. […] Results were expressed in mean ± standard deviation of two independent replicates using Bioestat Software.

T1 sequence (P36400 126-341, stated change not applied): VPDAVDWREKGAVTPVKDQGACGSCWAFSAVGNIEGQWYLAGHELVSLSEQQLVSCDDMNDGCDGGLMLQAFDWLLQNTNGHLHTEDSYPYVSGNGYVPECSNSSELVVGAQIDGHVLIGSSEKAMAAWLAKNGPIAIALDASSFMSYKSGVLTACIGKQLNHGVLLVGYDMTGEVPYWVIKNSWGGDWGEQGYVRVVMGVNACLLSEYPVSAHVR

`C[C@@H]1[C@H](O)[C@@H](C)/C=C/C=C/C=C/C=C/C=C/C=C/C=C/[C@H](O[C@@H]2O[C@H](C)[C@@H](O)[C@H](N)[C@@H]2O)C[C@@H]2O[C@](O)(C[C@@H](O)C[C@@H](O)[C@H](O)CC[C@@H](O)C[C@@H](O)CC(=O)O[C@H]1C)C[C@H](O)[C@H]2C(=O)O` [Amphotericin B, amphotericin B, reference compound]: the EC50 in series [1] (24 h treatment, intracellular amastigotes) amounted to 1 ± 0.1 µM. The selectivity ratio at 24 h in series [2] was determined as 12. In addition, the “% NO2- (mol/mol)” value in series [3] worked out at 0%.

As to `O=C(N/N=C/c1ccc(Oc2no[n+]([O-])c2-c2ccccc2)cc1)c1ccccc1` [Compound 4a, (E)-4-(4-((2-benzoylhydrazono)methyl)phenoxy)-3-phenyl-1,2,5-oxadiazole 2-oxide], the EC50 in series [1] (24 h) is 1.4 ± 0.1 µM. In series [2], the selectivity ratio at 24 h is > 357. In addition, the “% NO2- (mol/mol)” value in series [3] is 9.0 ± 0.7 %. Further, in series [4], the concentration for half-maximal inhibition (IC50) was 1.5 ± 0.1 µM.

As to `O=C(N/N=C/c1ccc(Oc2no[n+]([O-])c2-c2ccccc2)cc1)c1ccc(O)cc1` [Compound 4b, (E)-4-(4-((2-(4-hydroxybenzoyl)hydrazono)methyl)phenoxy)-3-phenyl-1,2,5-oxadiazole 2-oxide], in series [1] (24 h), the EC50 came out at 3.1 ± 0.2 µM. Also, the selectivity ratio at 24 h in series [2] turned out to be 54. Also, the “% NO2- (mol/mol)” value in series [3] is 8.8 ± 0.6 %. In addition, the 50% inhibitory concentration (IC50) in series [4] turned out to be 3.2 ± 0.3 µM.

As to `Nc1ccc(C(=O)N/N=C/c2ccc(Oc3no[n+]([O-])c3-c3ccccc3)cc2)cc1` [Compound 4c, (E)-4-(4-((2-(4-aminobenzoyl)hydrazono)methyl)phenoxy)-3-phenyl-1,2,5-oxadiazole 2-oxide], the EC50 in series [1] (24 h) was 7.2 ± 0.2 µM. In addition, the selectivity ratio at 24 h in series [2] came to 17. Besides, in series [3], the “% NO2- (mol/mol)” value was found to be 9.3 ± 0.8 %. In addition, the IC50 in series [4] came out at 2 ± 0.1 µM.

As for `O=C(N/N=C/c1ccc(Oc2no[n+]([O-])c2-c2ccccc2)cc1)c1ccc([N+](=O)[O-])cc1` [Compound 4d, (E)-4-(4-((2-(4-nitrobenzoyl)hydrazono)methyl)phenoxy)-3-phenyl-1,2,5-oxadiazole 2-oxide], the EC50 in series [1] (24 h) was 3.9 ± 0.4 µM. In series [2], the selectivity ratio at 24 h was > 128. In series [3], the “% NO2- (mol/mol)” value was determined as 8.6 ± 0.8 %. Also, the IC50 in series [4] stood at 1.8 ± 0.1 µM.

For `CC(C)(C)c1ccc(C(=O)N/N=C/c2ccc(Oc3no[n+]([O-])c3-c3ccccc3)cc2)cc1` [Compound 4e, (E)-4-(4-((2-(4-(tert-butyl)benzoyl)hydrazono)methyl)phenoxy)-3-phenyl-1,2,5-oxadiazole 2-oxide], in series [1] (24 h), the EC50 was determined as 0.6 ± 0.1 µM. In series [2], the selectivity ratio at 24 h was > 833. In addition, in series [3], the “% NO2- (mol/mol)” value was determined as 8.8 ± 0.7 %. Besides, in series [4], the IC50 was found to be 0.8 ± 0.1 µM.

For the compound `NC(=S)N/N=C/c1ccc(Oc2no[n+]([O-])c2-c2ccccc2)cc1` [Compound 4g, (E)-4-(4-((2-carbamothioylhydrazono)methyl)phenoxy)-3-phenyl-1,2,5-oxadiazole 2-oxide], the EC50 in series [1] (24 h) was 2.2 ± 0.3 µM. In addition, in series [2], the selectivity ratio at 24 h is > 227. Moreover, the “% NO2- (mol/mol)” value in series [3] is given as 9.0 ± 0.6 %. Moreover, in series [4], the IC50 turned out to be 6.5 ± 1 µM.

As for `NC(=O)c1c(COc2ccc(/C=N/NC(=O)c3ccccc3)cc2)no[n+]1[O-]` [Compound 4h, (E)-4-((4-((2-benzoylhydrazono)methyl)phenoxy)methyl)-3-carbamoyl-1,2,5-oxadiazole 2-oxide], the EC50 in series [1] (24 h) amounted to 3.1 ± 0.2 µM. Moreover, in series [2], the selectivity ratio at 24 h was > 161. Besides, the “% NO2- (mol/mol)” value in series [3] worked out at 12.1 ± 1.2 %. The IC50 in series [4] was 8.8 ± 0.2 µM.

As to `NC(=O)c1c(COc2ccc(/C=N/NC(=O)c3ccc([N+](=O)[O-])cc3)cc2)no[n+]1[O-]` [Compound 4l, (E)-3-carbamoyl-4-((4-((2-(4-nitrobenzoyl)hydrazono)methyl)phenoxy)methyl)-1,2,5-oxadiazole 2-oxide], in series [1] (24 h), the EC50 was 7.7 ± 2.1 µM. For the same compound, the “% NO2- (mol/mol)” value in series [3] worked out at 11.8 ± 1.1 %. The IC50 in series [4] is 10.8 ± 2.3 µM.

For `CC(C)(C)c1ccc(C(=O)N/N=C/c2ccc(OCc3no[n+]([O-])c3C(N)=O)cc2)cc1` [Compound 4m, (E)-4-((4-((2-(4-(tert-butyl)benzoyl)hydrazono)methyl)phenoxy)methyl)-3-carbamoyl-1,2,5-oxadiazole 2-oxide], in series [1] (24 h), the EC50 came to 6.4 ± 1.1 µM. The selectivity ratio at 24 h in series [2] is > 78. Further, the “% NO2- (mol/mol)” value in series [3] came out at 12.5 ± 1.3 %. For the same compound, the IC50 in series [4] is 6 ± 0.7 µM.

For the compound `O=C(N/N=C/c1ccc2no[n+]([O-])c2c1)c1ccccc1` [Compound 4p], the EC50 in series [1] (24 h) is > 10 µM. The IC50 in series [4] is > 20 µM.

As for `Nc1ccccc1C(=O)N/N=C/c1ccc2no[n+]([O-])c2c1` [Compound 4q], in series [1] (24 h), the EC50 was > 10 µM. In series [4], the concentration for half-maximal inhibition (IC50) is 14 ± 2 µM.

As to `Nc1cccc(C(=O)N/N=C/c2ccc3no[n+]([O-])c3c2)c1` [Compound 4r], the EC50 in series [1] (24 h) turned out to be 9.5 ± 0.6 µM. The selectivity ratio at 24 h in series [2] was determined as 11. Besides, in series [4], the IC50 worked out at 3.4 ± 0.1 µM.

Consider `Nc1ccc(C(=O)N/N=C/c2ccc3no[n+]([O-])c3c2)cc1` [Compound 4s], for which the EC50 in series [1] (24 h) is > 10 µM. The IC50 in series [4] is > 20 µM.

As to `O=C(N/N=C/c1ccc2no[n+]([O-])c2c1)c1ccccc1O` [Compound 4t], the EC50 in series [1] (24 h) is > 10 µM. The IC50 in series [4] amounted to 4.2 ± 0.2 µM.

Take `O=C(N/N=C/c1ccc2no[n+]([O-])c2c1)c1cccc(O)c1` [Compound 4u]: the EC50 in series [1] (24 h) is > 10 µM. Further, in series [4], the IC50 came out at 11.7 ± 0.5 µM.

As to `O=C(N/N=C/c1ccc2no[n+]([O-])c2c1)c1ccc(O)cc1` [Compound 4v], the EC50 in series [1] (24 h) is > 10 µM. The IC50 in series [4] is > 20 µM.

For `CC(C)(C)c1ccc(C(=O)N/N=C/c2ccc3no[n+]([O-])c3c2)cc1` [Compound 4x], the EC50 in series [1] (24 h) is > 10 µM. Also, the IC50 in series [4] (read-out: IC50 - Inhibition of CPB, 2 nM enzyme, 5 μM Z-FR-AMC, pH 5.5, 30°C) is > 20 µM.

In turn, `NC(=O)N/N=C/c1ccc(O)cc1` [Compound 14a, (E)-2-(4-hydroxybenzylidene)hydrazine-1-carboxamide] gave a melting point of 224 to 226 °C. The EC50 in series [1] (24 h) was > 10 µM. Moreover, the IC50 in series [4] was 2 ± 0.1 µM.

As for `NC(=S)N/N=C/c1ccc(O)cc1` [Compound 14b, (E)-2-(4-hydroxybenzylidene)hydrazine-1-carbothioamide], the IC50 in series [4] came out at 11.7 ± 1 µM.

`O=C(N/N=C/c1ccc(O)cc1)c1ccccc1` [Compound 14c, (E)-N’-(4-hydroxybenzylidene)benzohydrazide] yielded a melting point of 244 to 245 °C. The EC50 in series [1] (24 h) was > 10 µM. The 50% inhibitory concentration (IC50) in series [4] came to 2 ± 0.3 µM.

Consider `O=C(N/N=C/c1ccc(O)cc1)c1ccc(O)cc1` [Compound 14d, (E)-4-hydroxy-N’-(4-hydroxybenzylidene)benzohydrazide], for which the EC50 in series [1] (24 h) was > 10 µM. Besides, the IC50 in series [4] was determined as 2 ± 0.1 µM.

Consider `Nc1ccc(C(=O)N/N=C/c2ccc(O)cc2)cc1` [Compound 14e, (E)-4-amino-N’-(4-hydroxybenzylidene)benzohydrazide], for which the melting point was 275 to 276 °C. Also, in series [1] (24 h), the EC50 was > 10 µM. Besides, the IC50 in series [4] came to 1.2 ± 0.1 µM.

Take `O=C(N/N=C/c1ccc(O)cc1)c1ccc([N+](=O)[O-])cc1` [Compound 14f, (E)-N’-(4-hydroxybenzylidene)-4-nitrobenzohydrazide]: the melting point fell in the range of 266 to 268 °C. The EC50 in series [1] (24 h) was > 10 µM. In series [4], the IC50 is 4 ± 0.1 µM.

For the compound `CC(C)(C)c1ccc(C(=O)N/N=C/c2ccc(O)cc2)cc1` [Compound 14g, (E)-4-(tert-butyl)-N’-(4-hydroxybenzylidene)benzohydrazide], the EC50 in series [1] (24 h) was > 10 µM. Further, in series [4], the half-inhibitory concentration (IC50) is 7.6 ± 2.1 µM.

In the case of `O=[N+]([O-])O[C@H]1CO[C@H]2[C@@H]1OC[C@H]2O[N+](=O)[O-]` [DNS, isosorbide dinitrate, reference compound], the “% NO2- (mol/mol)” value in series [3] was 10.5% and 10.5 ± 0.9 ^*^a %.
